Patent US12060360B2, “Lysyl oxidase inhibitors” (The Institute of Cancer Research: Royal Cancer Hospital, priority 2017, dated 2024)

Experiments:
LOX = target: T1, LOX (Mus musculus, UniProt P28301); test: LOX activity in cysts assay (LOX-roGFP2 biosensor, MDCK cysts); format: cell-based; settings: MDCK cysts; for inhibition at 10 µM: inhibitor added 30 min prior to imaging, DMSO = 0%, BAPN 1 mM = 100% inhibition, read-out: LOX biosensor inhibition (cyst) @ 10 uM; for IC50: roGFP2 ratio at basal surface, read-out: LOX biosensor IC50 (cyst)
T1 construct: Full length LOX cDNA was then PCR cloned into pEGFP-N1 (Clonetech), or biosensor vector proGFP2-N1; expressed in transfected cells; host or cells: MDCK cells grown as cysts on Matrigel, G418-selected
T1 sequence (P28301 163-411): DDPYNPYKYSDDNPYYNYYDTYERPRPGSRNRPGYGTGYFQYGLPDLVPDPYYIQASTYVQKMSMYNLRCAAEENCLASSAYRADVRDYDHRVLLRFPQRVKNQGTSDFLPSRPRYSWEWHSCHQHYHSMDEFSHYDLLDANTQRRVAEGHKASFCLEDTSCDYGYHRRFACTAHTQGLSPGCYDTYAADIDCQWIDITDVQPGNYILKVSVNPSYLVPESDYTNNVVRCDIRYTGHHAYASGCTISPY
Protocol: LOX Activity in Cysts Assay (Tang et al, 2017).
All cell lines used in this study were purchased from American Type Culture Collection (ATCC). Mycoplasma contamination was routinely monitored by PCR. Cells used were not found to be Mycoplasma positive. MDCK cell lines were cultured in Dulbecco's Modified Eagle Medium (DMEM) supplemented with 10% fetal bovine serum (FBS) and 1% Penicillin Streptomycin solution (Pen Strep). For GFP constructs transfection in MDCK cells, lipofectamine 3000 was used according to manufactures protocols. Cells were either selected with G418 (Life Technologies) at 5 mg/ml. All cell culture reagents were purchased from Life Technologies.
To produce MDCK cysts, cells were cultured on Matrigel (Corning) with 2% Matrigel supplemented in DMEM with 10% FBS. Cysts were allowed to form for 10 days before subsequent studies.
Mouse LOX cDNA was purchased from OriGene. Full length LOX cDNA was then PCR cloned into pEGFP-N1 (Clonetech), or biosensor vector proGFP2-N1 (Hanson, 2004) using the following primers, […] (forward primer) and […] (reverse primer). For the insertion into pEGFP-N1 or proGFP2-N1, NheI and XhoI restriction sites were added to forward and reverse primers accordingly. Mutant LOX constructs were made using QuickChange II site-directed mutagenesis kit (Agilent Technologies) following manufacture's protocol using LOX-GFP as template. To generate, roGFP2 versions of LOX mutant constructs, LOX mutant cDNA was transferred from pEGFP-N1 to proGFP2-N1 using NheI and XhoI.
All photomicrographs were taken with a Leica TCS SP8 X confocal system. For LOX biosensor imaging, live MDCK cysts were used. The oxidised biosensor was excited using a 405 nm laser, while the reduced biosensor was excited with a 488 nm laser. Emission of the biosensor was recorded at 500 nm˜530 nm range using sequential scans. Ratio images were generated following a published protocol {Kardash, 2011 #376}. Note, while the published protocol generates YFP/CFP ratio images, we used it to generate Oxidised/Reduced (roGFP2 ratio) ratio images. The roGFP2 ratio at the basal surface of MDCK cysts was used to indicate LOX inhibition. LOX inhibitors were added 30 min prior to imaging.
For clarity, readout for DMSO treated cysts represents 0% inhibition (no inhibition) and readout for BAPN at 1 mM is used as 100% inhibition (full inhibition).

[1] = system: MDA-MB-231 human breast adenocarcinoma; test: MDA-MB-231 xenografts, primary tumour volume T/C; format: in vivo; settings: 200 mg/kg po qd, ratio of average tumour volume treated/vehicle control, p<0.05
Protocol: (§1) All procedures involving animals were approved by the Animal Welfare and Ethical Review Body of the Institute of Cancer Research and Cancer Research UK Manchester Institute in accordance with National Home Office regulations under the Animals (Scientific Procedures) Act 1986 and according to the guidelines of the Committee of the National Cancer Research Institute Tumour size was determined by caliper measurements of tumour length, width and depth and volume was calculated as volume=0.5236×length×width×depth (mm).
MDA-MB-231 xenografts. Ncr nude female mice at 6 weeks old from Charles River were injected into the third upper nipple mammary fat pad with MDA-MB-231 Luc 4×10^6 in 100 ul PB (50:50 Matrigel). When tumours reach a mean of 80 mm^3 around 10 days post cell inoculation the animals are allocated in 4 groups of 8. LOX inhibitor treatment is then administrated by oral gavage dosing, at 0.2 ml/20 g bodyweight once daily for up to 28 consecutive days. Tumours and weights are measured twice weekly using calipers and the animals can be imaged using non invasive method by bioluminescence using IVIS 200 imaging machine, weekly using 150 mg/kg luciferin administrate intraperitoneal or subcutaneous. At the end of the study the animals are culled, and samples taken, fixed or snap frozen in liquid nitrogen. Frozen samples kept at −80 degree centigrade until being analyzed and the fixed samples stained according to desired marker.
(§2) For therapeutic efficacy assessment, the ratio of average tumour volume between compound treated and vehicle control treated (T/C) is calculated. Reduction in tumour volume in the compound treated group compared to vehicle-treated control group results in T/C<1. The efficacy of LOX inhibitors described in this invention, as measured by T/C in a pancreatic cancer model, a colorectal cancer model and a breast cancer model is shown in Table 2 and is significant (p<0.05) for all the data presented.

[2] = system: MMTV-PyMT breast transgenic model primary tumour; test: MMTV-PyMT transgenic mouse breast cancer model, primary tumour T/C; format: in vivo; settings: 200 mg/kg po qd; ratio of average tumour volume treated/vehicle control; p<0.05
Protocol: as §1
(§3) MMTV-PyMT (Guy et al, 1992) (FVB) female mice were randomized by non-statistical methods to LOX inhibitor treatment groups from day 70 post-birth, when animals had no detectable tumour. Mice were treated daily by oral gavage with LOX inhibitor in vehicle, or daily vehicle (5% DMSO/2.5% Tween20 in water) by oral gavage. Tumour size was determined unblinded by caliper measurements of tumour length, width and depth and volume was calculated as 0.5236×length×width×depth (mm). In all experiments, mice were humanely killed and mammary tumours and lungs were collected when the primary tumours reached ethical limits or signs of ill health.
as §2

[3] = system: MMTV-PyMT breast transgenic model lung metastases; test: MMTV-PyMT transgenic mouse breast cancer model, lung metastases quantification T/C; format: in vivo; settings: 200 mg/kg po qd, treated/vehicle control, p<0.05
Protocol: as §3
For lung metastases quantification, all mouse tissue samples were fixed in 10% formalin (Sigma) and embedded in paraffin. Samples were sectioned and hematoxylin and eosin (H&E) stained. Samples were imaged with a Leica CN400 slide scanner. Lung metastases were manually selected using Pen tool in ImageScope. Lung metastases number was counted and area was measured using ImageScope. The investigator was blinded to the experimental groups. The ratio of average metastases surface between compound treated and vehicle control treated (TIC) is calculated. The ratio of average metastases numbers between compound treated and vehicle control treated (T/C) is also calculated. Reduction in metastases area and/or in metastatses number in the compound treated group compared to vehicle-treated control group results in T/C<1. The antimetastatic efficacy of LOX inhibitors described in this invention, as measured by T/C in a model of breast cancer metastasising to lungs is shown in Table 2 and is significant (p<0.05) for all the data presented.

[4] = system: PDAC TRP53R172H (p53 mut) cells (mouse pancreatic carcinoma); test: PDAC allografts, primary tumour volume T/C; format: in vivo; settings: ratio of average tumour volume treated/vehicle control, p<0.05
Protocol: as §1
PDAC allografts: CD1 nu/nu female mice at 6 weeks of age were inoculated subcutaneously in the right flank with 2×10^6 PDAC TRP53R172H (p53 mut) cells at 100 ul suspension per animal. In some examples, the oral dosing by metal gavage commences one day after cells inoculation, at 0.2 ml/20 g bodyweight per animal once daily for 2-4 weeks, with compound dissolved in 5.25% tween20/saline or 5% DMSO/water. In other examples, groups of 7-8 mice were assigned to treatment following stratified allocation of tumour volumes with a median size of circa 100 mm^3. […] Control animals received a similar dosage of vehicle (5.25% tween20/saline). Tumours and weights are measured twice weekly using calipers. At the end of the study the animals are culled, and samples taken, fixed or snap frozen in liquid nitrogen. Frozen samples kept at −80 degree centigrade until being analysed and the fixed samples stained according to the desired marker.
as §2

Structure (SMILES) | inhibition at 10 µM (LOX) | IC50 (LOX) | response vs control in vivo at 200 mg/kg [1] | T/C MMT-PyMT breast transgenic model - primary tumour [2] | T/C MMT-PyMT breast transgenic model - metastases b) Area ([3]; lung metastases area) | T/C MMT-PyMT breast transgenic model - metastases a) Count ([3]; lung metastases number) | T/C PDAC R172H (p53 mut) (mouse pancreatic carcinoma) - primary tumour ([4]; 200 mg/kg po qd) | T/C PDAC R172H (p53 mut) (mouse pancreatic carcinoma) - primary tumour ([4]; 100 mg/kg bid)
CC1(C)C[C@@H]2CN(C(=O)NCCO)C[C@H]1N(c1ccc(N3CCOCC3)cc1)C2 [Example 4, (1S,5S)—N-(2-hydroxyethyl)-9,9-dimethyl-6-(4-morpholinophenyl)-3,6-diazabicyclo[3.2.2]nonane-3-carboxamide] | 88% | 610 nM | 35% |  |  |  |  | 
CC1(C)C[C@@H]2CN(C(=O)NC3CCOCC3)C[C@H]1N(c1ccc(N3CCS(=O)(=O)CC3)cc1)C2 [Example 7, (1S,5S)-6-(4-(1,1-dioxidothiomorpholino)phenyl)-9,9-dimethyl-N-(tetrahydro-2H-pyran-4-yl)-3,6-diazabicyclo[3.2.2]nonane-3-carboxamide] | 88% | 540 nM | 34% | 0.25 |  |  |  | 
CC1(C)C[C@@H]2CN(C(=O)N3CCOCC3)C[C@H]1N(c1ccc(N3CCS(=O)(=O)CC3)cc1)C2 [Example 10, ((1S,5S)-6-(4-(1,1-dioxidothiomorpholino)phenyl)-9,9-dimethyl-3,6-diazabicyclo[3.2.2]nonan-3-yl)(morpholino)methanone] | 100% | < 180 nM | 39% | 0.11 | b) 0.0006 | a) 0.02 |  | 
CCOc1ccc(N2C[C@H]3CN(C(=O)NCCO)C[C@@H]2C(C)(C)C3)cc1 [Example 12, (1S,5S)-N-(2-hydroxyethyl)-6-(4-ethoxyphenyl)-9,9-dimethyl-3,6-diazabicyclo[3.2.2]nonane-3-carboxamide] |  | 890 nM |  | 0.26 |  |  | 0.47 | 
CCOc1ccc(N2C[C@H]3CN(C(=O)NCCS(C)(=O)=O)C[C@@H]2C(C)(C)C3)cc1 [Example 13, (1S,5S)-6-(4-ethoxyphenyl)-9,9-dimethyl-N-(2-(methylsulfonyl)ethyl)-3,6-diazabicyclo[3.2.2]nonane-3-carboxamide] |  | 1020 nM | 63% |  |  |  |  | 0.56
CCOc1ccc(N2C[C@H]3CN(C(=O)NCCc4c[nH]cn4)C[C@@H]2C(C)(C)C3)cc1 [Example 26, (1S,5S)-N-(2-(1H-imidazol-4-yl)ethyl)-6-(4-ethoxyphenyl)-9,9-dimethyl-3,6-diazabicyclo[3.2.2]nonane-3-carboxamide] |  | 340 nM |  |  |  |  | 0.46 | 
COCCOc1ccc(N2C[C@H]3CN(C(=O)NCCO)C[C@@H]2C(C)(C)C3)cc1 [Example 27, (1S,5S)-N-(2-Hydroxyethyl)-6-(4-(2-methoxyethoxy)phenyl)-9,9-dimethyl-3,6-diazabicyclo[3.2.2]nonane-3-carboxamide] | 88% | 990 nM | 60% |  |  |  |  | 
CC1(C)C[C@@H]2CN(CCCC#N)C[C@H]1N(c1ccc(N3CCS(=O)(=O)CC3)cc1)C2 [Example 39, 4-((1R,5S)-6-(4-(1,1-dioxidothiomorpholino)phenyl)-9,9-dimethyl-3,6-diazabicyclo[3.2.2]nonan-3-yl)butanenitrile] | 75% | 3180 nM | 48% |  |  |  |  | 
CC1(C)C[C@@H]2CN(C(=O)CCC#N)C[C@H]1N(c1ccc(N3CCS(=O)(=O)CC3)cc1)C2 [Example 49, 4-((1 S,5S)-6-(4-(1,1-Dioxidothiomorpholino)phenyl)-9,9-dimethyl-3,6-diazabicyclo[3.2.2]nonan-3-yl)-4-oxobutanenitrile] | 100% |  | 62% |  |  |  |  | 
